Source: patent EP0445023A1, “Vehicle for a therapeutically active agent for external use and antiseptic preparation comprising said vehicle” (INNOTHERA, priority 1990, dated 1991)

Test: ex vivo transcutaneous passage
Assay type: in vitro ADME
Settings: peau épilée ou rasée de rats, applied as the antiseptic preparation

O=C(Nc1ccc(Cl)cc1)Nc1ccc(Cl)c(Cl)c1 [principe actif, trichloro-3,4,4′ carbanilide]
passage transcutané du principe actif: n'ont pas permis de déceler un passage transcutané
